# Experiments:
# Type in all cases: cell-based
# Phospho-Rb (Ser807/811) = assay: Phospho-Retinoblastoma (pRB) Cellular Assay; details: Homo sapiens, OVCAR-3, NIH OVCAR3 cells, 24 hours; for IC50: concentration giving 50% response; for Emax: maximum response, reference compound at 10 μM = 100%, read-out: pRB Ymax
# How it was run: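 Phospho-Rb (Ser807/811) kit read-out on EnVision after lysis (≥4 h, room temperature, dark) of OVCAR3 cells exposed to compound dilutions for 24 h. IC50 and maximum response Ymax are relative to a 10 μM reference compound defining 100%.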
# GSPT1 = GSPT1 (Homo sapiens, UniProt P15170+Q96SW2); assay: GSPT1 Cellular Degradation Assay (DF15-GSPT1-ePL); design: expressed in transfected cells; details: DF15-GSPT1-ePL cells, 20 hours
# Sequence of GSPT1 (P15170 whole entry, the tested form may be a part): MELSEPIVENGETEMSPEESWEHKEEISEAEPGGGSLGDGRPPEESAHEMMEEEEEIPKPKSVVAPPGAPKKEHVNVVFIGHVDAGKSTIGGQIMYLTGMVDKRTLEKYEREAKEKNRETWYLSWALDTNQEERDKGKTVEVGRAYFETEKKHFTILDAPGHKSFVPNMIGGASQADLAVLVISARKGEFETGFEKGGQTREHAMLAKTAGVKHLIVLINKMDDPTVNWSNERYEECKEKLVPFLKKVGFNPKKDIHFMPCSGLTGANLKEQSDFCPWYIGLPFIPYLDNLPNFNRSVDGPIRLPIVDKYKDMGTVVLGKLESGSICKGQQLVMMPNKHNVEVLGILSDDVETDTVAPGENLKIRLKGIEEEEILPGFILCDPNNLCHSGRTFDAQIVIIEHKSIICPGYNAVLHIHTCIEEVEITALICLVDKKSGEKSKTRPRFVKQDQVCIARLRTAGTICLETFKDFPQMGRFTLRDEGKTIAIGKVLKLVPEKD
# Sequence of GSPT1 (Q96SW2 whole entry, the tested form may be a part): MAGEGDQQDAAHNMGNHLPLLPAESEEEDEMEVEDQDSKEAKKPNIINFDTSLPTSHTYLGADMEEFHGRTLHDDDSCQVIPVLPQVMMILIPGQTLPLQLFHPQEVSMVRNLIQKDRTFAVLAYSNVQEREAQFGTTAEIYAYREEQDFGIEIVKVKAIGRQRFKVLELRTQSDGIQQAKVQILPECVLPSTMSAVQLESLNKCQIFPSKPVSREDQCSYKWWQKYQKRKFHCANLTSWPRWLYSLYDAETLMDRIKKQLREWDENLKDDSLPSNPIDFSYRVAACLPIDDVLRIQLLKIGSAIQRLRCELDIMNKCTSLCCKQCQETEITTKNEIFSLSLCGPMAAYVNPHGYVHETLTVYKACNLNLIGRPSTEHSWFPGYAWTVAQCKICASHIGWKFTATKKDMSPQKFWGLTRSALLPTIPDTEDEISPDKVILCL
# Sequence of GSPT1 (Q16531 whole entry partner, the tested form may be a part): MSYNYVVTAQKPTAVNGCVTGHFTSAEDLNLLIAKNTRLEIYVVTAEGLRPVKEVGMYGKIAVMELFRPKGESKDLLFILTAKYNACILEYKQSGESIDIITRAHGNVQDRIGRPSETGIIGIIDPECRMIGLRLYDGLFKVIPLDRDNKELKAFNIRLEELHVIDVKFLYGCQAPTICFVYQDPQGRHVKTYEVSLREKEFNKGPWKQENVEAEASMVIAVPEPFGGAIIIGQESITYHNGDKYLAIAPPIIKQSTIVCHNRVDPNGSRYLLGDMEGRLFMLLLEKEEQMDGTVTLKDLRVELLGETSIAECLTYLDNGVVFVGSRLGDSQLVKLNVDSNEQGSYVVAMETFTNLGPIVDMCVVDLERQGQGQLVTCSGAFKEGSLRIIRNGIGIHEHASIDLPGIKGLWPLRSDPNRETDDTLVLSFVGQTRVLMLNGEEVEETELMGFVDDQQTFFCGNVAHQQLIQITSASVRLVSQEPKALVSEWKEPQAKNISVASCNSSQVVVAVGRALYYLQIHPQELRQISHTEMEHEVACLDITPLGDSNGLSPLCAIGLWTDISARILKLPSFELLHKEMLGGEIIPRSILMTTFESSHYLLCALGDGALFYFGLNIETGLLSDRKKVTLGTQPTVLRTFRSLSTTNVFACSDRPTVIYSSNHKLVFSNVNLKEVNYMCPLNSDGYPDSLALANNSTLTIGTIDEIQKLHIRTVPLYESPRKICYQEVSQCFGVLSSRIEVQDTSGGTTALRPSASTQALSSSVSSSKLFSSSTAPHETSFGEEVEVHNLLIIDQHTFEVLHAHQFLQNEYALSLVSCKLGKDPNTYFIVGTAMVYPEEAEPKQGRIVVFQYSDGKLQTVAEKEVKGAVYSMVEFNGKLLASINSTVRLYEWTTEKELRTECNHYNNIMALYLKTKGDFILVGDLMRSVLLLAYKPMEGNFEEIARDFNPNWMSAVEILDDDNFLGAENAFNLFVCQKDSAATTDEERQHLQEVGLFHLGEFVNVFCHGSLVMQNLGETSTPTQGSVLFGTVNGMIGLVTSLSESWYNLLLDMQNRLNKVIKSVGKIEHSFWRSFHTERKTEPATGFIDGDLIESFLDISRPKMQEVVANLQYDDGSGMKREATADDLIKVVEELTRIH
# How it was run: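 DC50 and Dmax were derived from chemiluminescence, with 75% response set by the reference compound at […]. Readout was ePL enzyme-fragment complementation in a DF15 line expressing chimeric GSPT1. Cells were exposed to compound for 20 h at 37 °C in RPMI 1640 with 10% FBS, cooled 30 min, then lysed with substrate for 60 min.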
# Cyclin E1 = Cyclin E1 (Homo sapiens, UniProt P24864+Q96SW2); assay: Cyclin E1 Cellular Degradation Assay (MSD); design: endogenous in cells; host or cells: OVCAR3; details: for DC50 / Dmax: Cyclin E1 cellular degradation; for Dmax: maximum degradation; for Ratio of GSPT1 DC50/Cyclin E1 DC50: selectivity for degradation of Cyclin E1 over GSPT1
# Sequence of Cyclin E1 (P24864 whole entry): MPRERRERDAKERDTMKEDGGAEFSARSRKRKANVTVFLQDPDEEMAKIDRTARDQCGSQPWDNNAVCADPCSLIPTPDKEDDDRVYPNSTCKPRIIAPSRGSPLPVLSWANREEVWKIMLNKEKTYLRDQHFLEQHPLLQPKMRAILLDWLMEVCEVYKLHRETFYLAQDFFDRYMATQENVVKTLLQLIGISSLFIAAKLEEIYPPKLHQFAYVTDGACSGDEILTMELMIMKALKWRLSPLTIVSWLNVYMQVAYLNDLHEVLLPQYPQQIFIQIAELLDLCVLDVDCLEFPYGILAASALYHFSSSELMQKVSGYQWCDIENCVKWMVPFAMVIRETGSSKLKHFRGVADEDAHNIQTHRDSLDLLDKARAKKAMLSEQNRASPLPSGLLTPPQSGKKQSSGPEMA
# Sequence of Cyclin E1 (Q96SW2 whole entry): as the sequence (Q96SW2 whole entry, the tested form may be a part) above
# Sequence of Cyclin E1 (Q16531 whole entry partner): as the sequence (Q16531 whole entry partner, the tested form may be a part) above
# How it was run: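 Cyclin E1 remaining after 24 h compound exposure of OVCAR3 cells was quantified in lysates by electrochemiluminescent MSD sandwich assay. DC50 (50% response concentration) and Dmax (maximum response) were calculated, with 110% response set by a reference compound at […].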
IC50 (Phospho-Rb (Ser807/811)) [nM],DC50 (GSPT1) [µM],Dmax (GSPT1) [%],DC50 (Cyclin E1) [nM],Dmax (Cyclin E1) [%],Ratio of GSPT1 DC50/Cyclin E1 DC50 (Cyclin E1),SMILES,Emax (Phospho-Rb (Ser807/811)) [%]
263,11.4,57,26,109,431,"COc1c(COC(=O)Nc2ccc(Oc3cccc(F)c3F)cc2F)ccc2c1C(=O)N(C1CCC(=O)NC1=O)C2 (centres unmarked) [Example 22, [2-(2,6-dioxopiperidin-3-yl)-4-methoxy-3-oxo-2,3-dihydro-1H-isoindol-5-yl]methyl N-[4-(2,3-difluorophenoxy)-2-fluorophenyl]carbamate]",97
131,> 14,16,23,98,>615,"CC(C)(O)COc1c(COC(=O)Nc2ccc(Oc3ccccc3)cc2)ccc2c1C(=O)N(C1CCC(=O)NC1=O)C2 (centres unmarked) [Example 160, [2-(2,6-dioxopiperidin-3-yl)-4-(2-hydroxy-2-methylpropoxy)-3-oxo-2,3-dihydro-1H-isoindol-5-yl]methyl N-(4-phenoxyphenyl)carbamate]",145
287,> 14,25,198,106,>71,"COc1c(COC(=O)Nc2ccc(Oc3cc(F)c(F)cc3C)cc2F)ccc2c1C(=O)N(C1CCC(=O)NC1=O)C2 (centres unmarked) [Example 94, [2-(2,6-dioxopiperidin-3-yl)-4-methoxy-3-oxo-2,3-dihydro-1H-isoindol-5-yl]methyl N-[4-(4,5-difluoro-2-methylphenoxy)-2-fluorophenyl]carbamate]",107
326,> 14,24,357,106,>39,"COc1cc(Oc2ccc(F)c(C)c2)ccc1NC(=O)OCc1ccc2c(c1OC)C(=O)N(C1CCC(=O)NC1=O)C2 (centres unmarked) [Example 97, [2-(2,6-dioxopiperidin-3-yl)-4-methoxy-3-oxo-2,3-dihydro-1H-isoindol-5-yl]methyl N-[4-(4-fluoro-3-methylphenoxy)-2-methoxyphenyl]carbamate]",101
98,> 14,7,263,107,>53,"CC(C)Oc1c(COC(=O)Nc2ccc(Oc3ccc(F)c(F)c3)cc2)ccc2c1C(=O)N([C@H]1CCC(=O)NC1=O)C2 (single isomer, unassigned) [Example 125]",138
28,> 14,10,42,107,>332,"CC(C)(O)COc1c(COC(=O)Nc2ccc(Oc3cc(F)c(F)c(F)c3)cc2F)ccc2c1C(=O)N(C1CCC(=O)NC1=O)C2 (centres unmarked) [Example 165, [2-(2,6-dioxopiperidin-3-yl)-4-(2-hydroxy-2-methylpropoxy)-3-oxo-2,3-dihydro-1H-isoindol-5-yl]methyl N-[2-fluoro-4-(3,4,5-trifluorophenoxy)phenyl]carbamate]",133
112,> 14,38,129,112,>108,"COc1c(COC(=O)Nc2ccc(Oc3cc(F)c(F)cc3F)cc2C)ccc2c1C(=O)N(C1CCC(=O)NC1=O)C2 (centres unmarked) [Example 45, [2-(2,6-dioxopiperidin-3-yl)-4-methoxy-3-oxo-2,3-dihydro-1H-isoindol-5-yl]methyl N-[2-methyl-4-(2,4,5-trifluorophenoxy)phenyl]carbamate]",116
503,> 14,19,184,104,>76,"O=C1CCC(N2Cc3ccc(COC(=O)Nc4ccc(Oc5ccccc5)cc4)c(OC(F)F)c3C2=O)C(=O)N1 (centres unmarked) [Example 60, [4-(difluoromethoxy)-2-(2,6-dioxopiperidin-3-yl)-3-oxo-2,3-dihydro-1H-isoindol-5-yl]methyl N-(4-phenoxyphenyl)carbamate]",109
71,> 14,15,67,109,>209,"O=C1CCC(N2Cc3ccc(COC(=O)Nc4ccc(Oc5cc(F)cc(F)c5)cc4F)c(O[C@@H]4CCCOC4)c3C2=O)C(=O)N1 (stereo partly drawn) [Example 149, [2-(2,6-dioxopiperidin-3-yl)-4-[(3R)-oxan-3-yloxy]-3-oxo-2,3-dihydro-1H-isoindol-5-yl]methyl N-[4-(3,5-difluorophenoxy)-2-fluorophenyl]carbamate]",144
22,> 14,19,19,106,>738,"O=C1CCC(N2Cc3ccc(COC(=O)Nc4ccc(Oc5ccc(F)c(F)c5)cc4)c(OC4CCOCC4)c3C2=O)C(=O)N1 (centres unmarked) [Example 130, [2-(2,6-dioxopiperidin-3-yl)-4-(oxan-4-yloxy)-3-oxo-2,3-dihydro-1H-isoindol-5-yl]methyl N-[4-(3,4-difluorophenoxy)phenyl]carbamate]",119
115,> 14,28,104,108,>135,"COc1c(COC(=O)Nc2ccc(Oc3ccc(Cl)c(Cl)c3)cc2F)ccc2c1C(=O)N(C1CCC(=O)NC1=O)C2 (centres unmarked) [Example 117, [2-(2,6-dioxopiperidin-3-yl)-4-methoxy-3-oxo-2,3-dihydro-1H-isoindol-5-yl]methyl N-[4-(3,4-dichlorophenoxy)-2-fluorophenyl]carbamate]",108
24,> 14,11,38,110,>368,"O=C1CCC(N2Cc3ccc(COC(=O)Nc4ccc(Oc5ccc(F)cc5F)cc4F)c(OC4CCOCC4)c3C2=O)C(=O)N1 (centres unmarked) [Example 136, [2-(2,6-dioxopiperidin-3-yl)-4-(oxan-4-yloxy)-3-oxo-2,3-dihydro-1H-isoindol-5-yl]methyl N-[4-(2,4-difluorophenoxy)-2-fluorophenyl]carbamate]",144
55,> 14,9,34,112,>418,"O=C1CCC(N2Cc3ccc(COC(=O)Nc4ccc(Oc5ccc(F)c(F)c5)cc4)c(O[C@@H]4CCCOC4)c3C2=O)C(=O)N1 (stereo partly drawn) [Example 141, [2-(2,6-dioxopiperidin-3-yl)-4-[(3R)-oxan-3-yloxy]-3-oxo-2,3-dihydro-1H-isoindol-5-yl]methyl N-[4-(3,4-difluorophenoxy)phenyl]carbamate]",136
42,> 14,16,25,106,>569,"O=C1CCC(N2Cc3ccc(COC(=O)Nc4ccc(Oc5ccc(F)cc5)cc4)c(OC4CCOCC4)c3C2=O)C(=O)N1 (centres unmarked) [Example 133, [2-(2,6-dioxopiperidin-3-yl)-4-(oxan-4-yloxy)-3-oxo-2,3-dihydro-1H-isoindol-5-yl]methyl N-[4-(4-fluorophenoxy)phenyl]carbamate]",145
176,> 14,33,205,107,>68,"COc1c(COC(=O)Nc2ccc(Oc3ccccc3C(F)F)cc2F)ccc2c1C(=O)N(C1CCC(=O)NC1=O)C2 (centres unmarked) [Example 86, [2-(2,6-dioxopiperidin-3-yl)-4-methoxy-3-oxo-2,3-dihydro-1H-isoindol-5-yl]methyl N-{4-[2-(difluoromethyl)phenoxy]-2-fluorophenyl}carbamate]",112
212,> 14,36,128,102,>109,"CC(C)Oc1c(COC(=O)Nc2ccc(Oc3ccccc3)cc2)ccc2c1C(=O)N(C1CCC(=O)NC1=O)C2 (centres unmarked) [Example 57, [2-(2,6-dioxopiperidin-3-yl)-3-oxo-4-(propan-2-yloxy)-2,3-dihydro-1H-isoindol-5-yl]methyl N-(4-phenoxyphenyl)carbamate]",114
44,> 14,20,179,101,>78,"NC(=O)COc1c(COC(=O)Nc2ccc(Oc3ccc(F)c(F)c3)cc2)ccc2c1C(=O)N(C1CCC(=O)NC1=O)C2 (centres unmarked) [Example 176, [4-(carbamoylmethoxy)-2-(2,6-dioxopiperidin-3-yl)-3-oxo-2,3-dihydro-1H-isoindol-5-yl]methyl N-[4-(3,4-difluorophenoxy)phenyl]carbamate]",112

# Source: patent publication US20250084056A1, “SUBSTITUTED OXOISOINDOLINYL PIPERIDINE-2,6-DIONE COMPOUNDS” (BRISTOL-MYERS SQUIBB COMPANY, priority 2023, published 2025)
